# Laboratory results: patent publication US8263642B2, “Antimicrobial compounds and methods of use thereof” (Vanderbilt University, priority 2008, dated 2012)
# How the values were obtained:
# [1] = test system: hrtAB-driven expression of the xylE reporter gene; experiment: XylE reporter assay (hrtAB promoter-xylE), Newman; assay type: cell-based, Staphylococcus aureus; details: for XylE (0.05): level of XylE induction at 0.05 uM of the compound; for XylE (0.5): level of XylE induction at 0.5 uM of the compound; for XylE (5.0): level of XylE induction at 5.0 uM of the compound; for XylE (50.0): level of XylE induction at 50.0 uM of the compound
# Procedure: (§1) With reference to Table 1, “Luminescence” refers to the raw luminescence value obtained in a luminomter. “Control (82.5 nm)” refers to the luminescence value obtained from heme at 82.5 nM as a positive control in the same plate as the experimental. “% lum” is the percentage of luminescence induced by the compound as compared to the heme control in the same plate. […] All of these assays are described in the application. […] “N/T” indicates the test was not performed.
# Compounds that activate HssRS-driven hrtAB expression in the luciferase-based screen can be subjected to two separate counter screens to confirm these compounds as active hits. First, compounds of interest can be tested for their ability to activate expression of hrtAB in the XylE expression assay described hereinbelow. This is an in vitro assay that measures hrtAB-driven expression of the xylE reporter gene. The XylE-based reporter assay utilizes slightly more manipulations than the primary luciferase-based screen. […] It should be appreciated that a shortcoming of this counter screen is that it measures reporter gene expression, which is a similar activity as that measured in the primary assay. To address this shortcoming, compounds that are positive in both XylE- and luciferase-based assays can be subjected to a second counter screen as described hereinbelow.
# S. aureus strains harboring the appropriate reporter construct were inoculated into 500 μl of TSB containing 10 μg/ml chloramphenicol in 1.5 ml tubes. Cultures were grown O/N at 37° C. with shaking. Bacteria were pelleted by centrifugation and spent medium was aspirated. The pellet was washed once with 500 μl of 20 mM potassium phosphate, pH 7.6, and resuspended in 150 μl of 100 mM potassium phosphate buffer, pH 8.0, 10% (v/v) acetone, 25 μg/ml lysostaphin. After 20 minute incubation at 37° C. and 5 minute incubation on ice, samples were centrifuged at 20,000 g for 30 minutes at 4° C. 1-10 μl of supernatant was added to a 96-well plate and 200 μl of 100 mM potassium phosphate, pH 8.0, 0.2 mM pyrocatechol was added to each well. Formation of 2-hydroxymuconic semialdehyde was tracked by measuring the absorbance at 375 nm every minute for 30 minutes on a Varian MP 50 microplate reader. Protein concentration in samples was determined by BCA (Pierce). One unit of specific activity of XylE in a sample is defined as the formation of 1 nmol of 2-hydroxymuconic semialdehyde per minute per milligram of cellular protein at 30° C. (Chien, Y., Manna, A. C., Projan, S. J., and Cheung, A. L. 1999, “SarA, a global regulator of virulence determinants in Staphylococcus aureus, binds to a conserved motif essential for sar-dependent gene regulation. J. Biol. Chem. 274, 37169-37176).
# The hrtAB intergenic region was fused to the xylE structural gene by PCR-SOE. In the first reaction, primer P1B:[…] and P2B:[…] were used to amplify the hrtAB intergenic region from S. aureus strain Newman genomic DNA. In the second PCR reaction primers P3B:[…] and P4B:[…] were used to amplify the xylE structural gene using pALC1639 template DNA (provided by Dr. Ambrose Cheung) and PCR product purified using a Qiagen gel extraction kit. For the PCRSOE reaction, a 1:300 dilution of purified reaction 1 and reaction 2 PCR products was mixed and amplified by PCR using […]. This yielded a construct in which the hrtAB intergenic region is fused to the xylE gene in such a manner that the position of the start codon for xylE corresponds to the position of the start codon for […] in the hrtAB locus. The hrtAB promoter-xylE fusion DNA was then subcloned into pOS1. As a control we also constructed a promoterless xylE vector. The xylE gene was amplified from pACL1639 template DNA using the primers P1C:[…] and P2C:[…] and then cloned into the pOS1 vector.
# [2] = test system: HssRS-dependent hrtAB expression; experiment: Luminescence-based assay to monitor HssRS-dependent hrtAB expression (phrtABlux reporter), Newman; assay type: cell-based, Staphylococcus aureus; details: Newman; for activation at 0.0825 µM: Staphylococcus aureus, NEWMAN, read-out: % Lumi, luminescence induced by the compound compared to the heme control (82.5 nM) in the same plate; for Luminescence: raw luminescence value obtained in a luminometer
# Procedure: as §1
# A hrtAB-driven expression system was created in the pXen vector system (Xenogen) (Francis, K. P., D. Joh, C. Bellinger-Kawahara, M. J. Hawkinson, T. F. Purchio, and P. R. Contag. 2000. Monitoring bioluminescent Staphylococcus aureus infections in living mice using a novel luxABCDE construct. Infect Immun 68:3594-3600). This vector contains a promoterless luxCDABE operon from Photorabdus luminescens which produces blue green light when expressed. The luxCDABE encodes for a fatty acid reductase (LuxCDE) that produces a long chain fatty aldehyde which, when combined with cellular flavin mononucleotide, is oxidized by a luciferase (LuxAB) to produce light. Therefore, this system is useful in that it bypasses the need for substrate addition and is capable of generating light in the absence of any added reagents. Furthermore, the luminescent signal produced by the combined activities of LuxAB and LuxCDE is of sufficient intensity to be visualized in unmanipulated intact bacteria.
# To establish an assay that measures HssRS-dependent expression of luxCDABE, the promoter for hrtAB upstream of luxCDABE was cloned and transformed this vector (phrtABlux) into wildtype and ΔhssR S. aureus. A promoterless vector (plux) and a plasmid containing luxCDABE under the control of a constitutive promoter (psrtAlux) (Mazmanian, S. K., G. Liu, H. Ton-That, and O. Schneewind. 1999. “Staphylococcus aureus sortase, an enzyme that anchors surface proteins to the cell wall.” Science 285:760-763) were included as negative and positive controls, respectively. Initially, wildtype S. aureus harboring either plux, phrtABlux, or psrtAlux were plated on solid medium that either lacked heme or contained 4 μM heme. Only wildtype S. aureus containing psrtAlux produced light on solid media regardless of the presence or absence of heme. […] Light was not produced by bacteria containing plux in either condition.
# To adapt this system for a HTS to measure ligand recognition by HssRS, luminescence of wildtype and ΔhssR harboring the above listed plasmids in liquid media with or without heme was measured. […] Taken together, these experiments establish a whole cell […] assay that can identify small molecule modifiers of HssRS. This screen, in some aspects, can identify molecules that can be used as molecular probes in structure-function analyses to determine the mechanism by which S. aureus sense host heme.
# Upon staphylococcal exposure to heme, HssRS senses heme and activates expression of hrtAB. This process can be measured using a reporter assay that employs a vector encoding the light-producing luxCDABE operon under the control of the hrtAB promoter. This assay results in whole cell luminescence upon HssRS-dependent activation of hrtAB, forming the foundation for the development of an assay suitable for high-throughput screens for small molecule activators of HssRS.
# To develop an automated HTS format, S. aureus wildtype and ΔhssR harboring reporter constructs (psrtAlux, phrtAlux, plux) can be grown for 15 hours at 37° C. in tryptic soy broth (TSB) containing 10 μg/ml chloramphenicol. The addition of chloramphenicol is useful to ensure that the staphylococci propagate the reporter plasmid upon cell division. Following growth, bacterial cultures can be normalized and 2×10^7 cells (approximately 2 μl) can be added to individual wells of black walled, clear bottomed, 96-well plates. […]
structure (smiles),measurement,setting,value
C=CCc1ccccc1Oc1ccc(C(F)(F)F)cn1,XylE (0.05),[1],0.08
same,XylE (0.5),[1],0.02
same,XylE (5.0),[1],0.07
same,XylE (50.0),[1],0.09
same,activation at 0.0825 µM,[2],27.5%
same,Luminescence,[2],1474
O=[N+]([O-])c1ccc(O)c(/C=N/c2ccccc2-c2nc3ccccc3s2)c1,XylE (0.05),[1],1
same,XylE (0.5),[1],50
same,XylE (5.0),[1],1
same,XylE (50.0),[1],1
same,activation at 0.0825 µM,[2],630%
same,Luminescence,[2],2904
CCN(CC)S(=O)(=O)c1cc(C(=O)NC2CCCCCC2)ccc1Cl,XylE (0.05),[1],1
same,XylE (0.5),[1],1
same,XylE (5.0),[1],1
same,XylE (50.0),[1],0.05
same,activation at 0.0825 µM,[2],759%
same,Luminescence,[2],2080
CCOC(=O)c1c(C)[nH]c2c1-c1cc(Br)ccc1C(=O)C2=O,XylE (0.05),[1],1
same,XylE (0.5),[1],1
same,XylE (5.0),[1],0.09
same,XylE (50.0),[1],0.3
same,activation at 0.0825 µM,[2],240%
same,Luminescence,[2],2896
COc1cccc(-c2cc(C(=O)Nc3ccccc3C(F)(F)F)c3ccccc3n2)c1,XylE (0.5),[1],0
same,XylE (5.0),[1],0.05
same,XylE (50.0),[1],0.09
same,activation at 0.0825 µM,[2],450%
same,Luminescence,[2],1642
O=C(Nc1ccc(C(F)(F)F)cc1)c1cc(S(=O)(=O)NCc2ccc(F)cc2)ccc1F,XylE (0.5),[1],0
same,XylE (5.0),[1],0.03
same,XylE (50.0),[1],0.03
same,activation at 0.0825 µM,[2],493%
same,Luminescence,[2],1710
O=c1oc2ccccc2c(O)c1C(c1ccc([N+](=O)[O-])o1)c1c(O)c2ccccc2oc1=O,XylE (0.5),[1],0.02
same,XylE (5.0),[1],0.07
same,XylE (50.0),[1],0
same,activation at 0.0825 µM,[2],559%
same,Luminescence,[2],1939
COc1ccc(/C=C/c2nc3ccccc3c(=O)n2-c2cccc(C(=O)O)c2)cc1,XylE (0.5),[1],0.04
same,XylE (5.0),[1],0.08
same,XylE (50.0),[1],0.05
same,activation at 0.0825 µM,[2],705%
same,Luminescence,[2],1995
COc1cc(OC)cc(C(=O)Nc2ccc(-c3nc4cc(C)ccc4o3)cc2)c1,XylE (0.5),[1],0.1
same,XylE (5.0),[1],0.6
same,XylE (50.0),[1],0
same,activation at 0.0825 µM,[2],345%
same,Luminescence,[2],1765
COc1cc(/C=C/c2ccc3cccc(O)c3n2)c(Cl)cc1O,XylE (0.5),[1],1
same,XylE (5.0),[1],0.5
same,XylE (50.0),[1],0
same,activation at 0.0825 µM,[2],533%
same,Luminescence,[2],1722
Oc1ccccc1-c1nc(NC2CCCC2)c2ccccc2n1,XylE (0.5),[1],0.09
same,XylE (5.0),[1],0.02
same,XylE (50.0),[1],0
same,activation at 0.0825 µM,[2],591%
same,Luminescence,[2],1637
O=C(Nc1ccncc1)c1ccc(COc2cc(Cl)ccc2Cl)cc1,XylE (0.5),[1],1
same,XylE (5.0),[1],0.4
same,XylE (50.0),[1],1
same,activation at 0.0825 µM,[2],597%
same,Luminescence,[2],1845
O=C(NC(=S)Nc1ccc(Oc2ccccc2)cc1)c1cccs1,XylE (0.5),[1],0.01
same,XylE (5.0),[1],0.09
same,XylE (50.0),[1],0.01
same,activation at 0.0825 µM,[2],415%
same,Luminescence,[2],1774
O=C(Nc1ccncc1)c1ccc(COc2ccccc2Cl)cc1,XylE (0.5),[1],0.09
same,XylE (5.0),[1],0
same,XylE (50.0),[1],1
same,activation at 0.0825 µM,[2],478%
same,Luminescence,[2],1589
COC(=O)CCNc1nc(-c2ccc(Br)cc2)nc2ccccc12,XylE (0.5),[1],0.03
same,XylE (5.0),[1],0.02
same,XylE (50.0),[1],0.8
same,activation at 0.0825 µM,[2],484%
same,Luminescence,[2],1714
c1cc(-c2ccc3nsnc3c2)c2cc3nsnc3cc2c1,XylE (0.5),[1],0.06
same,XylE (5.0),[1],0
same,XylE (50.0),[1],0.9
same,activation at 0.0825 µM,[2],347%
same,Luminescence,[2],1630
Cc1cccc(C(=O)N2N=C(c3cccc(Br)c3)CC2(C)C(F)(F)F)c1 (centres unmarked),XylE (0.5),[1],0.04
same,XylE (5.0),[1],0.08
same,XylE (50.0),[1],0.1
same,activation at 0.0825 µM,[2],572%
same,Luminescence,[2],1683
Cc1cc(C)c(S(=O)(=O)Nc2ccc(O)c(-c3c(O)ccc4ccccc34)c2)cc1C,XylE (0.5),[1],0.03
same,XylE (5.0),[1],0.06
same,XylE (50.0),[1],0.05
same,activation at 0.0825 µM,[2],354%
same,Luminescence,[2],1574
O=C(Nc1ccccc1O)c1cccc(N2C(=O)c3ccc([N+](=O)[O-])cc3C2=O)c1,XylE (0.5),[1],0.02
same,XylE (5.0),[1],0
same,XylE (50.0),[1],0.03
same,activation at 0.0825 µM,[2],675%
same,Luminescence,[2],1850
O=C(COc1nsnc1N1CCOCC1)Nc1ccccc1,XylE (0.5),[1],0.05
same,XylE (5.0),[1],0.02
same,XylE (50.0),[1],0.03
same,activation at 0.0825 µM,[2],207%
same,Luminescence,[2],1594
COC(=O)C1=C(C)NC(=O)NC1c1cn(-c2ccccc2)nc1-c1ccc(OC)c(OC)c1 (centres unmarked),XylE (0.5),[1],0.04
same,XylE (5.0),[1],0.03
same,XylE (50.0),[1],0.05
same,activation at 0.0825 µM,[2],866%
same,Luminescence,[2],1854
Cc1ccc(CNC(=O)c2ccc(CSCc3ccccc3Cl)o2)cc1,XylE (0.5),[1],0.08
same,XylE (5.0),[1],0.7
same,XylE (50.0),[1],0.8
same,activation at 0.0825 µM,[2],192%
same,Luminescence,[2],1603
Cc1ccc(Nc2nc(-c3ccccc3O)nc3ccccc23)cc1,XylE (0.5),[1],0.04
same,XylE (5.0),[1],0.1
same,XylE (50.0),[1],0.08
same,activation at 0.0825 µM,[2],360%
same,Luminescence,[2],1922
